Test results from ChEMBL document CHEMBL4507269, “Data for DCP probe BAY-386” (2021).

What was measured:
[1] = biological target: T1, 5-hydroxytryptamine receptor 1A (Homo sapiens) (UniProt P08908); assay: 5-HT1A (h) Eurofins-Cerep Cellular and Nuclear Receptor Functional Assays; conditions: Compound concentration 10.0 uM
T1 sequence (whole entry): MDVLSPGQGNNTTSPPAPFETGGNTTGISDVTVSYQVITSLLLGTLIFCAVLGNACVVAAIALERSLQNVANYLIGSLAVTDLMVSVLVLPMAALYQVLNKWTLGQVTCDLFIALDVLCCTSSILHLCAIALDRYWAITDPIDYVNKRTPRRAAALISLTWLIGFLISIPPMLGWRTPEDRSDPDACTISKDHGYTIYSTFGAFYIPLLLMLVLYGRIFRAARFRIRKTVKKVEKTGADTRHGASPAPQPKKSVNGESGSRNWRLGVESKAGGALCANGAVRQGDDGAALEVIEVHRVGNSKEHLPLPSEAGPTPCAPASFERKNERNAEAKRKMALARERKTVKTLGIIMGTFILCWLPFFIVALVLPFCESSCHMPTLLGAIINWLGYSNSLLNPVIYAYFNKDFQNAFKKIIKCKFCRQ

[2] = test system: Tyrosine-protein kinase ABL1 (Homo sapiens), P00519 [H396P]; conditions: Compound concentration 1000.0 nM
[3] = biological target: RAC-gamma serine/threonine-protein kinase (Homo sapiens) (UniProt Q9Y243); conditions: Compound concentration 1000.0 nM
[4] = biological target: NUAK family SNF1-like kinase 1 (Homo sapiens) (UniProt O60285); conditions: Compound concentration 1000.0 nM
[5] = biological target: Calcium/calmodulin-dependent protein kinase type 1G (Homo sapiens) (UniProt Q96NX5); conditions: Compound concentration 1000.0 nM
[6] = biological target: Calcium/calmodulin-dependent protein kinase type II subunit delta (Homo sapiens) (UniProt Q13557); conditions: Compound concentration 1000.0 nM
[7] = biological target: Cyclin-dependent kinase 2 (Homo sapiens) (UniProt P24941); conditions: Compound concentration 1000.0 nM
[8] = biological target: Death-associated protein kinase 2 (Homo sapiens) (UniProt Q9UIK4); conditions: Compound concentration 1000.0 nM
[9] = test system: Epidermal growth factor receptor (Homo sapiens), P00533 [L858R]; conditions: Compound concentration 1000.0 nM
[10] = test system: Epidermal growth factor receptor (Homo sapiens), P00533 [UNDEFINED MUTATION]; conditions: Compound concentration 1000.0 nM
[11] = test system: Receptor-type tyrosine-protein kinase FLT3 (Homo sapiens), P36888 [UNDEFINED MUTATION]; conditions: Compound concentration 1000.0 nM
[12] = test system: eIF-2-alpha kinase GCN2 (Homo sapiens), Q9P2K8 [S808G]; conditions: Compound concentration 1000.0 nM
[13] = biological target: Insulin receptor-related protein (Homo sapiens) (UniProt P14616); conditions: Compound concentration 1000.0 nM
[14] = biological target: Interleukin-1 receptor-associated kinase 1 (Homo sapiens) (UniProt P51617); conditions: Compound concentration 1000.0 nM
[15] = biological target: LIM domain kinase 2 (Homo sapiens) (UniProt P53671); conditions: Compound concentration 1000.0 nM
[16] = test system: Leucine-rich repeat serine/threonine-protein kinase 2 (Homo sapiens), Q5S007 [G2019S]; conditions: Compound concentration 1000.0 nM
[17] = biological target: Leukocyte tyrosine kinase receptor (Homo sapiens) (UniProt P29376); conditions: Compound concentration 1000.0 nM
Chain of Leukocyte tyrosine kinase receptor (Homo sapiens) (P29376 whole entry): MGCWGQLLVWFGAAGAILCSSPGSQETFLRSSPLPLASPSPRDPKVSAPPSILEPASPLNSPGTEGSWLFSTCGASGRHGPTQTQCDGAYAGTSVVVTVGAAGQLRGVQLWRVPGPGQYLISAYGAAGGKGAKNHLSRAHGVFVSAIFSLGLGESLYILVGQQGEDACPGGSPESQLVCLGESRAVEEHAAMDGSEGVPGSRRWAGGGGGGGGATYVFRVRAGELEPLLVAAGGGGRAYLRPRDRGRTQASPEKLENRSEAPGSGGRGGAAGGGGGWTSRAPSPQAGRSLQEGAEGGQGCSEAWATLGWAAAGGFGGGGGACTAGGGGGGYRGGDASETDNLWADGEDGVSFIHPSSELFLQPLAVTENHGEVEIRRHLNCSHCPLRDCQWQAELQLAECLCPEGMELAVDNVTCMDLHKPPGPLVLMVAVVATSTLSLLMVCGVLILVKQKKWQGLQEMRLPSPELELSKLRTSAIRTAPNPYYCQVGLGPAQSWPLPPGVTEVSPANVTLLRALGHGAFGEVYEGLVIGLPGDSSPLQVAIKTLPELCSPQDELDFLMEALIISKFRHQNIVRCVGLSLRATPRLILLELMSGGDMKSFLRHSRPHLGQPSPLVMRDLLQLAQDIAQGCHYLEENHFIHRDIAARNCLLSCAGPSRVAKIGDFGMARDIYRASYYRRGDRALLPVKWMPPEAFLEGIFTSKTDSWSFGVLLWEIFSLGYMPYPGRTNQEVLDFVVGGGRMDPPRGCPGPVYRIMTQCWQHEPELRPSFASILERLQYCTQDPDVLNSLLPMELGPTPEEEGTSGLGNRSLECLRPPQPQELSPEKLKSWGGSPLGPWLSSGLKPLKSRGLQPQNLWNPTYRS

[18] = biological target: Serine/threonine-protein kinase 3 (Homo sapiens) (UniProt Q13188); conditions: Compound concentration 1000.0 nM
[19] = biological target: Serine/threonine-protein kinase mTOR (Homo sapiens) (UniProt P42345); conditions: Compound concentration 1000.0 nM
[20] = biological target: Serine/threonine-protein kinase 38-like (Homo sapiens) (UniProt Q9Y2H1); conditions: Compound concentration 1000.0 nM
[21] = biological target: Serine/threonine-protein kinase PAK 4 (Homo sapiens) (UniProt O96013); conditions: Compound concentration 1000.0 nM
[22] = biological target: Cyclin-dependent kinase 17 (Homo sapiens) (UniProt Q00537); conditions: Compound concentration 1000.0 nM
[23] = biological target: Platelet-derived growth factor receptor alpha (Homo sapiens) (UniProt P16234); conditions: Compound concentration 1000.0 nM
[24] = test system: Phosphatidylinositol 4,5-bisphosphate 3-kinase catalytic subunit alpha isoform (Homo sapiens), P42336 [H1047L]; conditions: Compound concentration 1000.0 nM
[25] = biological target: RAF proto-oncogene serine/threonine-protein kinase (Homo sapiens) (UniProt P04049); conditions: Compound concentration 1000.0 nM
[26] = test system: Proto-oncogene tyrosine-protein kinase receptor Ret (Homo sapiens), P07949 [V804L]; conditions: Compound concentration 1000.0 nM
[27] = biological target: Serine/threonine-protein kinase RIO1 (Homo sapiens) (UniProt Q9BRS2); conditions: Compound concentration 1000.0 nM
[28] = biological target: STE20-like serine/threonine-protein kinase (Homo sapiens) (UniProt Q9H2G2); conditions: Compound concentration 1000.0 nM
Chain of STE20-like serine/threonine-protein kinase (Homo sapiens) (Q9H2G2 whole entry, looked up): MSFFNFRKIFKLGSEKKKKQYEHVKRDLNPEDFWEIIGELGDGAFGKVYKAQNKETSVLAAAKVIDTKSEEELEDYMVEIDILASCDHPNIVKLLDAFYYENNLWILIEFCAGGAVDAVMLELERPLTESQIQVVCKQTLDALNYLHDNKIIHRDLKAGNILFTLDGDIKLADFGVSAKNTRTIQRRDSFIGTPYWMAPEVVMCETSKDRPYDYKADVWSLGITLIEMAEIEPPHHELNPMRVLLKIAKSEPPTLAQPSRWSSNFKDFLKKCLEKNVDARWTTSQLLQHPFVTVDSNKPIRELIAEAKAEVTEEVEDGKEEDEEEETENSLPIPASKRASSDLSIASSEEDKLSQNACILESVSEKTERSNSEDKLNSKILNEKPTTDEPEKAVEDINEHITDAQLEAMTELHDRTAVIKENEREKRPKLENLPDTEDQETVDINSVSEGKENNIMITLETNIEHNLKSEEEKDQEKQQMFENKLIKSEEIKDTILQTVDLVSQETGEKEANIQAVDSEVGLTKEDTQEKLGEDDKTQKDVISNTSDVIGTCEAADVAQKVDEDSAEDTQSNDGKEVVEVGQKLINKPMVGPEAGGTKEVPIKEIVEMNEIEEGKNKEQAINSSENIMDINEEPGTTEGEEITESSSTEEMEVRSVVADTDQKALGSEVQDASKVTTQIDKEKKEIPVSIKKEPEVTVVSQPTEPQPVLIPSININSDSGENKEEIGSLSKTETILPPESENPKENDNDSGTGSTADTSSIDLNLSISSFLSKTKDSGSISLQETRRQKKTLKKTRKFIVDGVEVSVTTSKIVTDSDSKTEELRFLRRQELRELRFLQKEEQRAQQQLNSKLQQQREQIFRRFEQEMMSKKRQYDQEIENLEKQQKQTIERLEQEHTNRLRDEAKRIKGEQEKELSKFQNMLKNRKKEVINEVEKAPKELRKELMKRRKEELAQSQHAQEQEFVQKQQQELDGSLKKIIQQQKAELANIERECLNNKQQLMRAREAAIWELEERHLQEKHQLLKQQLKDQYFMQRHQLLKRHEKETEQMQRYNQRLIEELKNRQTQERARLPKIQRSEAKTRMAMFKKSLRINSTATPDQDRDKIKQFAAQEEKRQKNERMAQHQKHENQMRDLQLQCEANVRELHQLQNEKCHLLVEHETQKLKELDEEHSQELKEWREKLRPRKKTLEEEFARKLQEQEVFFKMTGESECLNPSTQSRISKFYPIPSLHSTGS

[29] = biological target: Serine/threonine-protein kinase 36 (Homo sapiens) (UniProt Q9NRP7); conditions: Compound concentration 1000.0 nM
[30] = biological target: Serine/threonine-protein kinase TAO2 (Homo sapiens) (UniProt Q9UL54); conditions: Compound concentration 1000.0 nM
Chain of Serine/threonine-protein kinase TAO2 (Homo sapiens) (Q9UL54 whole entry): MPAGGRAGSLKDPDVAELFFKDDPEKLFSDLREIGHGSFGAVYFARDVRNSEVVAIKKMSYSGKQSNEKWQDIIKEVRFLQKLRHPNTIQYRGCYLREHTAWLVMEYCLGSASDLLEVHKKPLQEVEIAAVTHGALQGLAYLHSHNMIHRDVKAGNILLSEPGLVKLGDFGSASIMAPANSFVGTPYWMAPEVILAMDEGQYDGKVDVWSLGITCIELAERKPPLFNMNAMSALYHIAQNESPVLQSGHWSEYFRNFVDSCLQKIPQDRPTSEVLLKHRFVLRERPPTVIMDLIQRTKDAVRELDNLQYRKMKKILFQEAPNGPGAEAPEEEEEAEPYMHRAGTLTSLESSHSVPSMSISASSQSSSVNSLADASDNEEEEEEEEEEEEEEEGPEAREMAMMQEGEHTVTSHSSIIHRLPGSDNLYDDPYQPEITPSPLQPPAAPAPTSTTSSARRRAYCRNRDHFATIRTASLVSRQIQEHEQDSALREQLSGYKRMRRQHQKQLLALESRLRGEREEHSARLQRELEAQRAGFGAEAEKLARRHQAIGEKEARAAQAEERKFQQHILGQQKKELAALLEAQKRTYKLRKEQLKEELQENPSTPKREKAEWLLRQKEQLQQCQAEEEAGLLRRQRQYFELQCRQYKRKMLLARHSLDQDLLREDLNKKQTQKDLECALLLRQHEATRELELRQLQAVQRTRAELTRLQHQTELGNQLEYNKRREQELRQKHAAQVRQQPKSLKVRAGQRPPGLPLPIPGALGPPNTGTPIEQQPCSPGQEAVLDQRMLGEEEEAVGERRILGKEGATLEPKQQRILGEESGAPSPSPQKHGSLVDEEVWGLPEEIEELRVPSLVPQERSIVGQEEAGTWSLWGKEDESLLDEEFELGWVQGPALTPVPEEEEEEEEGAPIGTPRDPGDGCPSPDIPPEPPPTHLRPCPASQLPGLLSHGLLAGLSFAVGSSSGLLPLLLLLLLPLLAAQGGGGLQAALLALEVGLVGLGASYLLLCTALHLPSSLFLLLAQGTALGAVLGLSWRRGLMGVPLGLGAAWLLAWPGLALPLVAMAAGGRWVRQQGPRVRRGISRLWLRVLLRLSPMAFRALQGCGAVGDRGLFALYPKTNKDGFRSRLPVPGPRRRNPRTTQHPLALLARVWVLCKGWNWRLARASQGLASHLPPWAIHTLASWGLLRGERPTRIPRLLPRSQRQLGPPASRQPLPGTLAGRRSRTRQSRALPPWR

[31] = biological target: TGF-beta receptor type-2 (Homo sapiens) (UniProt P37173); conditions: Compound concentration 1000.0 nM
[32] = biological target: Tyrosine-protein kinase receptor Tie-1 (Homo sapiens) (UniProt P35590); conditions: Compound concentration 1000.0 nM
Chain of Tyrosine-protein kinase receptor Tie-1 (Homo sapiens) (P35590 whole entry): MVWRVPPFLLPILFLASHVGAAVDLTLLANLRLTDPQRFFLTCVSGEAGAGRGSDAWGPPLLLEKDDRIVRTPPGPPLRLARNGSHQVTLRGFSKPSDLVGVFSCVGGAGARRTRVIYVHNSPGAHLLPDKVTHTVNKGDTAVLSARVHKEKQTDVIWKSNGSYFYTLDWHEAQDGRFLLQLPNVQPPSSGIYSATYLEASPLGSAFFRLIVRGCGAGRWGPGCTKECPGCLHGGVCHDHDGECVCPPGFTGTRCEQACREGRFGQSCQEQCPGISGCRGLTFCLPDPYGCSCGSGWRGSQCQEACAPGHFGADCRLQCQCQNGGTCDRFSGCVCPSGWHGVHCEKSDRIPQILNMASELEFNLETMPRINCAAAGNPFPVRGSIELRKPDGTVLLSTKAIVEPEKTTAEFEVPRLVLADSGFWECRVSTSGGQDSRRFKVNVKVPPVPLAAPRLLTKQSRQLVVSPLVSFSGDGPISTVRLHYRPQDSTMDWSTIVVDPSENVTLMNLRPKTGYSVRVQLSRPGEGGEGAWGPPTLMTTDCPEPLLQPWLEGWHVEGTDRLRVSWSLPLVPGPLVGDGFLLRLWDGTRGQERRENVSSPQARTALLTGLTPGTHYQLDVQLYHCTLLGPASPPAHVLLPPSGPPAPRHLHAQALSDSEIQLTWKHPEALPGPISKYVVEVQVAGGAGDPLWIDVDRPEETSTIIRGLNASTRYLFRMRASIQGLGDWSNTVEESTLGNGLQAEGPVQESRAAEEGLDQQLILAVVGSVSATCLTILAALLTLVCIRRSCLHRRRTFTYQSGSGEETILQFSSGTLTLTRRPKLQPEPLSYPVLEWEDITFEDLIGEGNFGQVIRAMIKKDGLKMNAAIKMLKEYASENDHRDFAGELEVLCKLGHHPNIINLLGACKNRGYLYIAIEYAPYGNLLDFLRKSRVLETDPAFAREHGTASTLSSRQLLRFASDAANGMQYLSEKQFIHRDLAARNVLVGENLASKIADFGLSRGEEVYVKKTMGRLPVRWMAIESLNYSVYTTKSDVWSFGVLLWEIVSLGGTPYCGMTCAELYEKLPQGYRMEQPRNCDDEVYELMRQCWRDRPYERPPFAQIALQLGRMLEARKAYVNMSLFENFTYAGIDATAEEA

[33] = biological target: Serine/threonine-protein kinase tousled-like 2 (Homo sapiens) (UniProt Q86UE8); conditions: Compound concentration 1000.0 nM
[34] = biological target: Transient receptor potential cation channel subfamily M member 6 (Homo sapiens) (UniProt Q9BX84); conditions: Compound concentration 1000.0 nM
[35] = biological target: Serine/threonine-protein kinase ULK2 (Homo sapiens) (UniProt Q8IYT8); conditions: Compound concentration 1000.0 nM
[36] = biological target: Tyrosine-protein kinase Yes (Homo sapiens) (UniProt P07947); conditions: Compound concentration 1000.0 nM
Chain of Tyrosine-protein kinase Yes (Homo sapiens) (P07947 2-543 limits assumed): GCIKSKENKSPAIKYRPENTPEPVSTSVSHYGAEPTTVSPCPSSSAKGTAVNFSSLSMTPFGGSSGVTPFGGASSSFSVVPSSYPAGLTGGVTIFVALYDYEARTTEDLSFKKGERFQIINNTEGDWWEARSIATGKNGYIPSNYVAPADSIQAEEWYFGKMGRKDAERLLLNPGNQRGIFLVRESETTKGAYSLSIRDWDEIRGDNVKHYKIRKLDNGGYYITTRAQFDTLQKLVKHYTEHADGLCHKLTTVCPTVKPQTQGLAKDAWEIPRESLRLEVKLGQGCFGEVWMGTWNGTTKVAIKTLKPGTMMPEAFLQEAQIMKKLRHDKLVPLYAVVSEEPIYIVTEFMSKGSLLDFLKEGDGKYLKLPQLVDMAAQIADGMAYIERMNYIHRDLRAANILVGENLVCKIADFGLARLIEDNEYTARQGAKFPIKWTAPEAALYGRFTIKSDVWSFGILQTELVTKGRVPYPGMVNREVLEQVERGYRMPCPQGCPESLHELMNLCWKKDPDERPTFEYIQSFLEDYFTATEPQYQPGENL

[37] = biological target: GABA-A receptor; anion channel (Rattus norvegicus) (UniProt O09028+P15431+P18506+P18508+P19969+P20236+P23574+P23576+P28471+P28473+P30191+P62813+P63079+P63138+Q91ZM7+Q9ES14); conditions: Compound concentration 10.0 uM

| SMILES | % Inhibition of Control Agonist Response (Mean n=2) [1] | % of Control Agonist Response (Mean n=2) [1] | residual activity [2] | residual activity [3] | residual activity [4] | residual activity [5] | residual activity [6] | residual activity [7] | residual activity [8] | residual activity [9] | residual activity [10] | residual activity [11] | residual activity [12] | residual activity [13] | residual activity [14] | residual activity [15] | residual activity [16] | residual activity [17] | residual activity [18] | residual activity [19] | other results |
| --- | --- | --- | --- | --- | --- | --- | --- | --- | --- | --- | --- | --- | --- | --- | --- | --- | --- | --- | --- | --- | --- |
| O=C(N1CCS(=O)(=O)CC1)N1C[C@H](c2ccc(OC(F)(F)F)cc2)C[C@H](c2nc(C3CC3)no2)C1 [BAY-386] | 25.6% | -0.2% | 100% | 100% | 97% | 100% | 100% | 100% | 100% | 100% | 55% | 100% | 100% | 97% | 92% | 95% | 100% | 100% | 100% | 100% | residual activity [20]: 100%; residual activity [21]: 100%; residual activity [22]: 98%; residual activity [23]: 100%; residual activity [24]: 100%; residual activity [25]: 100%; residual activity [26]: 99%; residual activity [27]: 100%; residual activity [28]: 100%; residual activity [29]: 100%; residual activity [30]: 100%; residual activity [31]: 100%; residual activity [32]: 100%; residual activity [33]: 100%; residual activity [34]: 100%; residual activity [35]: 75%; residual activity [36]: 96%; inhibition [37]: -7.39% |
| Cc1noc([C@H]2C[C@@H](c3ccc(C(F)(F)F)cc3)CN(C(=O)N3CCS(=O)(=O)C3)C2)n1 [BAY-448] | -23% | 1.1% | 100% | 100% | 100% | 100% | 100% | 100% | 100% | 100% | 84% | 89% | 28% | 100% | 100% | 100% | 94% | 100% | 100% | 92% | residual activity [20]: 100%; residual activity [21]: 100%; residual activity [22]: 100%; residual activity [23]: 100%; residual activity [24]: 100%; residual activity [25]: 100%; residual activity [26]: 100%; residual activity [27]: 100%; residual activity [28]: 98%; residual activity [29]: 100%; residual activity [30]: 76%; residual activity [31]: 100%; residual activity [32]: 89%; residual activity [33]: 100%; residual activity [34]: 100%; residual activity [35]: 100%; residual activity [36]: 100%; inhibition [37]: 3.61% |
